Measurements reported in PubChem BioAssay (NCI).
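Cells were grown in 96-well plates and exposed to each compound for 48 hours at five concentrations; endpoints were interpolated linearly between bracketing concentrations, or set to the highest concentration if not reached. Definition used: TGI = concentration required for complete inhibition of growth.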

Legend:
Assay in all cases: NCI-60 cell line screen, 48 h
DU-145 prostate = test system: DU-145 prostate
A498 renal = test system: A498 renal
U251 CNS = test system: U251 CNS
T-47D breast = test system: T-47D breast
BT-549 breast = test system: BT-549 breast
NCI/ADR-RES ovarian = test system: NCI/ADR-RES ovarian
SF-268 CNS = test system: SF-268 CNS
HOP-92 NSCLC = test system: HOP-92 NSCLC
HT29 colon = test system: HT29 colon
NCI-H226 lung = test system: NCI-H226 lung
SR leukemia = test system: SR leukemia
HS 578T breast = test system: HS 578T breast
SK-MEL-2 melanoma = test system: SK-MEL-2 melanoma
ACHN renal = test system: ACHN renal
MDA-MB-435 = test system: MDA-MB-435
SK-MEL-5 melanoma = test system: SK-MEL-5 melanoma
OVCAR-4 ovarian = test system: OVCAR-4 ovarian
IGROV1 ovarian = test system: IGROV1 ovarian
SK-OV-3 ovarian = test system: SK-OV-3 ovarian
RXF 393 renal = test system: RXF 393 renal
MDA-N = test system: MDA-N
SNB-75 CNS = test system: SNB-75 CNS
NCI-H460 lung = test system: NCI-H460 lung
OVCAR-5 ovarian = test system: OVCAR-5 ovarian
UACC-257 melanoma = test system: UACC-257 melanoma
HL-60(TB) leukemia = test system: HL-60(TB) leukemia
SW-620 colon = test system: SW-620 colon
RPMI-8226 leukemia = test system: RPMI-8226 leukemia
MCF7 breast = test system: MCF7 breast
MOLT-4 leukemia = test system: MOLT-4 leukemia
OVCAR-3 ovarian = test system: OVCAR-3 ovarian
SNB-19 CNS = test system: SNB-19 CNS
CAKI-1 renal = test system: CAKI-1 renal
M14 melanoma = test system: M14 melanoma
PC-3 prostate = test system: PC-3 prostate
COLO 205 colon = test system: COLO 205 colon
OVCAR-8 ovarian = test system: OVCAR-8 ovarian
KM12 colon = test system: KM12 colon
786-0 renal = test system: 786-0 renal
SK-MEL-28 melanoma = test system: SK-MEL-28 melanoma
UO-31 renal = test system: UO-31 renal
TK-10 renal = test system: TK-10 renal
A549 NSCLC = test system: A549 NSCLC
HCT-116 colon = test system: HCT-116 colon
SF-295 CNS = test system: SF-295 CNS
K-562 leukemia = test system: K-562 leukemia
NCI-H522 lung = test system: NCI-H522 lung
SN12C renal = test system: SN12C renal
EKVX NSCLC = test system: EKVX NSCLC
CCRF-CEM leukemia = test system: CCRF-CEM leukemia
HCC-2998 colon = test system: HCC-2998 colon
SF-539 CNS = test system: SF-539 CNS
MALME-3M melanoma = test system: MALME-3M melanoma
HCT-15 colon = test system: HCT-15 colon
UACC-62 melanoma = test system: UACC-62 melanoma
MDA-MB-231 breast = test system: MDA-MB-231 breast
NCI-H23 lung = test system: NCI-H23 lung
LOX IMVI melanoma = test system: LOX IMVI melanoma
HOP-62 NSCLC = test system: HOP-62 NSCLC

Structure (SMILES): S=c1[nH]c(=S)c2cc(Sc3ccc4[nH]c(=S)[nH]c(=S)c4c3)ccc2[nH]1
- TGI (DU-145 prostate): > 100 µM
- TGI (A498 renal): 44 µM
- TGI (U251 CNS): > 100 µM
- TGI (T-47D breast): > 100 µM
- TGI (BT-549 breast): 73.2 µM
- TGI (NCI/ADR-RES ovarian): > 100 µM
- TGI (SF-268 CNS): 68 µM
- TGI (HOP-92 NSCLC): 57.4 µM
- TGI (HT29 colon): > 100 µM
- TGI (NCI-H226 lung): 52.5 µM
- TGI (SR leukemia): 51.2 µM
- TGI (HS 578T breast): 56.1 µM
- TGI (SK-MEL-2 melanoma): > 100 µM
- TGI (ACHN renal): > 100 µM
- TGI (MDA-MB-435): > 100 µM
- TGI (SK-MEL-5 melanoma): > 100 µM
- TGI (OVCAR-4 ovarian): 49.7 µM
- TGI (IGROV1 ovarian): 86.8 µM
- TGI (SK-OV-3 ovarian): 60 µM
- TGI (RXF 393 renal): 53.3 µM
- TGI (MDA-N): > 100 µM
- TGI (SNB-75 CNS): 42.6 µM
- TGI (NCI-H460 lung): > 100 µM
- TGI (OVCAR-5 ovarian): > 100 µM
- TGI (UACC-257 melanoma): > 100 µM
- TGI (HL-60(TB) leukemia): 62.8 µM
- TGI (SW-620 colon): > 100 µM
- TGI (RPMI-8226 leukemia): 54.9 µM
- TGI (MCF7 breast): > 100 µM
- TGI (MOLT-4 leukemia): > 100 µM
- TGI (OVCAR-3 ovarian): > 100 µM
- TGI (SNB-19 CNS): 78.2 µM
- TGI (CAKI-1 renal): 83.7 µM
- TGI (M14 melanoma): > 100 µM
- TGI (PC-3 prostate): > 100 µM
- TGI (COLO 205 colon): 52.4 µM
- TGI (OVCAR-8 ovarian): 48.1 µM
- TGI (KM12 colon): 62.5 µM
- TGI (786-0 renal): 40 µM
- TGI (SK-MEL-28 melanoma): > 100 µM
- TGI (UO-31 renal): 82.4 µM
- TGI (TK-10 renal): 67.7 µM
- TGI (A549 NSCLC): > 100 µM
- TGI (HCT-116 colon): > 100 µM
- TGI (SF-295 CNS): 47.1 µM
- TGI (K-562 leukemia): > 100 µM
- TGI (NCI-H522 lung): > 100 µM
- TGI (SN12C renal): > 100 µM
- TGI (EKVX NSCLC): > 100 µM
- TGI (CCRF-CEM leukemia): 80.9 µM
- TGI (HCC-2998 colon): > 100 µM
- TGI (SF-539 CNS): 82.8 µM
- TGI (MALME-3M melanoma): > 100 µM
- TGI (HCT-15 colon): > 100 µM
- TGI (UACC-62 melanoma): 36.3 µM
- TGI (MDA-MB-231 breast): > 100 µM
- TGI (NCI-H23 lung): 51.4 µM

Structure (SMILES): COc1ccc2c3c1OC1c4[nH]c5ccccc5c4CC4(O)C(C2)N(C)CCC314 (configuration not stated)
- TGI (DU-145 prostate): > 100 µM
- TGI (A498 renal): 31.6 µM
- TGI (U251 CNS): 44.8 µM
- TGI (T-47D breast): 43.6 µM
- TGI (BT-549 breast): > 100 µM
- TGI (NCI/ADR-RES ovarian): > 100 µM
- TGI (SF-268 CNS): > 100 µM
- TGI (HOP-92 NSCLC): 48.7 µM
- TGI (HT29 colon): 49.3 µM
- TGI (LOX IMVI melanoma): 52 µM
- TGI (SR leukemia): 37 µM
- TGI (HS 578T breast): 67.7 µM
- TGI (SK-MEL-2 melanoma): 39.5 µM
- TGI (ACHN renal): 75.6 µM
- TGI (MDA-MB-435): 35.7 µM
- TGI (SK-MEL-5 melanoma): 29.5 µM
- TGI (OVCAR-4 ovarian): > 100 µM
- TGI (IGROV1 ovarian): > 100 µM
- TGI (SK-OV-3 ovarian): > 100 µM
- TGI (RXF 393 renal): 50.8 µM
- TGI (MDA-N): 32.7 µM
- TGI (SNB-75 CNS): > 100 µM
- TGI (NCI-H460 lung): 50.3 µM
- TGI (OVCAR-5 ovarian): > 100 µM
- TGI (UACC-257 melanoma): 34.1 µM
- TGI (SW-620 colon): > 100 µM
- TGI (RPMI-8226 leukemia): 45.9 µM
- TGI (MCF7 breast): 60.4 µM
- TGI (MOLT-4 leukemia): 54.1 µM
- TGI (OVCAR-3 ovarian): > 100 µM
- TGI (SNB-19 CNS): > 100 µM
- TGI (CAKI-1 renal): > 100 µM
- TGI (M14 melanoma): 32.3 µM
- TGI (PC-3 prostate): > 100 µM
- TGI (COLO 205 colon): 37.7 µM
- TGI (OVCAR-8 ovarian): > 100 µM
- TGI (KM12 colon): > 100 µM
- TGI (786-0 renal): 34.3 µM
- TGI (SK-MEL-28 melanoma): 34.5 µM
- TGI (UO-31 renal): 28.1 µM
- TGI (TK-10 renal): 50.2 µM
- TGI (A549 NSCLC): > 100 µM
- TGI (HCT-116 colon): > 100 µM
- TGI (SF-295 CNS): > 100 µM
- TGI (K-562 leukemia): 37.2 µM
- TGI (NCI-H522 lung): 81.4 µM
- TGI (SN12C renal): > 100 µM
- TGI (EKVX NSCLC): > 100 µM
- TGI (CCRF-CEM leukemia): 52.8 µM
- TGI (HCC-2998 colon): 31 µM
- TGI (HCT-15 colon): > 100 µM
- TGI (UACC-62 melanoma): 57.3 µM
- TGI (MDA-MB-231 breast): 77.4 µM
- TGI (NCI-H23 lung): > 100 µM
- TGI (HOP-62 NSCLC): > 100 µM
